Source: patent US9593108B2, “Compounds and methods for antiviral treatment” (PTC Therapeutics, Inc., priority 2009, dated 2017)

System: HCV replicon RNA (GenBank Accession No. AJ242654)
Experiment: HCV Replicon Assay (replicon RNA reduction and/or Fluc reporter signal)
Assay type: cell-based, Hepatitis C virus
Conditions: replicon-containing cells cultured with test compound for up to 3 days
From the text: The lack of reliable and readily accessible cell-culture and small animal models permissive for HCV replication has limited the development of new anti-HCV agents. Self-replicating subgenomic HCV systems, termed HCV replicons, have been described and have been widely used to assess the efficacy of anti-HCV inhibitors (see Blight K J, et al., 2000, Efficient initiation of HCV RNA replication in cell culture. Science 290:1972-1974; Blight K J, et al., 2002, Highly permissive cell lines for subgenomic and genomic hepatitis C virus RNA replication. J Virol 76:13001-13014; Ikeda M, et al., 2002. Selectable subgenomic and genome-length dicistronic RNAs derived from an infectious molecular clone of the HCV-N strain of hepatitis C virus replicate efficiently in cultured Huh7 cells. J Virol 76:2997-3006; Lohmann V, et al., 1999, Replication of subgenomic hepatitis C virus RNAs in a hepatoma cell line. Science 285:110-113; Pietschmann T, et al., 2002, Persistent and transient replication of full-length hepatitis C virus genomes in cell culture. J Virol 76:4008-4021; and, Pietschmann T, et al., 2001, Characterization of cell lines carrying self-replicating hepatitis C virus RNAs. J Virol 75:1252-1264).
As described in U.S. Pat. No. 6,630,343, HCV inhibitors are analyzed in the bicistronic replicon by quantitating replicon RNA (GenBank Accession No. AJ242654) reduction and/or the Fluc reporter signal. Replicon-containing cells may be cultured with a test compound of the present invention for up to 3 days. Interferon (IFN) is used as a positive control. In general, the replicon IC50 values shown in Table 1 represent IC50 values determined by replicon RNA reduction.

“6-(3,6-dicyano-1-cyclobutyl-1H-pyrrolo[2,3-b]pyridin-2-yl)-N-[(2S)-1,1,1-trifluoropropan-2-yl]pyridine-3-sulfonamide [Cpd 241]” gave an IC50 of under 0.5 µM.
`COc1ccc2c(n1)c(C#N)c(-c1ccc(S(=O)(=O)N[C@@H](C)C(F)(F)F)cn1)n2C1CCC1` [Cpd 20, 6-(3-cyano-1-cyclobutyl-5-methoxy-1H-pyrrolo[3,2-b]pyridin-2-yl)-N-[(2S)-1,1,1-trifluoropropan-2-yl]pyridine-3-sulfonamide] showed an IC50 (Hepatitis C virus, 72 h) of 0.5 to 2 µM.
`COc1cnc2c(c1)c(C#N)c(-c1ccc(S(=O)(=O)N[C@@H](C)C(F)(F)F)cn1)n2C1CCC1` [Cpd 22, 6-(3-cyano-1-cyclobutyl-5-methoxy-1H-pyrrolo[2,3-b]pyridin-2-yl)-N-[(2S)-1,1,1-trifluoropropan-2-yl]pyridine-3-sulfonamide] showed an IC50 (Hepatitis C virus, 72 h) of 0.5 to 2 µM.
`COc1ncc2c(C#N)c(-c3ccc(S(=O)(=O)N[C@@H](C)C(F)(F)F)cn3)n(C3CCC3)c2n1` [Cpd 38, 6-(5-cyano-7-cyclobutyl-2-methoxy-7H-pyrrolo[2,3-d]pyrimidin-6-yl)-N-[(2S)-1,1,1-trifluoropropan-2-yl]pyridine-3-sulfonamide] showed an IC50 (Hepatitis C virus, 72 h) of under 0.5 µM.
`COc1ncc2c(C#N)c(-c3ccc(S(=O)(=O)N[C@H](C)C(F)(F)F)cn3)n(C3CCC3)c2n1` [Cpd 39, 6-(5-cyano-7-cyclobutyl-2-methoxy-7H-pyrrolo[2,3-d]pyrimidin-6-yl)-N-[(2R)-1,1,1-trifluoropropan-2-yl]pyridine-3-sulfonamide] gave an IC50 (Hepatitis C virus, 72 h) of 2 to 5 µM.
In the case of `COc1ccc2c(C#N)c(-c3ccc(S(=O)(=O)NC(CF)CF)cc3)n(C3CCC3)c2n1` [Cpd 43, 4-(3-cyano-1-cyclobutyl-6-methoxy-1H-pyrrolo[2,3-b]pyridin-2-yl)-N-(1,3-difluoropropan-2-yl)benzenesulfonamide], the IC50 (Hepatitis C virus, 72 h) is reported as under 0.5 µM.
`COc1cnc2c(c1)c(C#N)c(-c1ccc(S(=O)(=O)N[C@H](C)C(F)(F)F)cn1)n2C1CCC1` [Cpd 48, 6-(3-cyano-1-cyclobutyl-5-methoxy-1H-pyrrolo[2,3-b]pyridin-2-yl)-N-[(2R)-1,1,1-trifluoropropan-2-yl]pyridine-3-sulfonamide] was tested, and the IC50 (Hepatitis C virus, 72 h) was under 0.5 µM.
`Cc1ccc2c(C#N)c(-c3ccc(S(=O)(=O)N[C@H](C)C(F)(F)F)cc3)n(C3CCC3)c2n1` [Cpd 91, 4-(3-cyano-1-cyclobutyl-6-methyl-1H-pyrrolo[2,3-b]pyridin-2-yl)-N-[(2R)-1,1,1-trifluoropropan-2-yl]benzenesulfonamide] showed an IC50 (Hepatitis C virus, 72 h) of under 0.5 µM.
In the case of `Cc1ccc2c(C#N)c(-c3ccc(S(=O)(=O)N[C@@H](C)C(F)(F)F)cn3)n(C3CCC3)c2n1` [Cpd 92, 6-(3-cyano-1-cyclobutyl-6-methyl-1H-pyrrolo[2,3-b]pyridin-2-yl)-N-[(2S)-1,1,1-trifluoropropan-2-yl]pyridine-3-sulfonamide], the IC50 (Hepatitis C virus, 72 h) is reported as under 0.5 µM.
`Cc1ccc2c(C#N)c(-c3ccc(S(=O)(=O)N[C@H](C)C(F)(F)F)cn3)n(C3CCC3)c2n1` [Cpd 93, 6-(3-cyano-1-cyclobutyl-6-methyl-1H-pyrrolo[2,3-b]pyridin-2-yl)-N-[(2R)-1,1,1-trifluoropropan-2-yl]pyridine-3-sulfonamide] was tested, and the IC50 (Hepatitis C virus, 72 h) was under 0.5 µM.
In the case of `Cc1ccc2c(C#N)c(-c3ncc(S(=O)(=O)NC(C)C)cn3)n(C3CCC3)c2n1` [Cpd 95, 2-(3-cyano-1-cyclobutyl-6-methyl-1H-pyrrolo[2,3-b]pyridin-2-yl)-N-(propan-2-yl)pyrimidine-5-sulfonamide], the IC50 (Hepatitis C virus, 72 h) is reported as 0.5 to 2 µM.
`C[C@@H](NS(=O)(=O)c1cnc(-c2c(C#N)c3cc(C4CC4)cnc3n2C2CCC2)nc1)C(F)(F)F` [Cpd 120, 2-(3-cyano-1-cyclobutyl-5-cyclopropyl-1H-pyrrolo[2,3-b]pyridin-2-yl)-N-[(2R)-1,1,1-trifluoropropan-2-yl]pyrimidine-5-sulfonamide] was tested, and the IC50 (Hepatitis C virus, 72 h) was under 0.5 µM.
In the case of `N#Cc1c(-c2ccc(S(=O)(=O)NC3(C(F)(F)F)CC3)cc2)n(C2CCC2)c2ncc(C3CC3)cc12` [Cpd 123, 4-(3-cyano-1-cyclobutyl-5-cyclopropyl-1H-pyrrolo[2,3-b]pyridin-2-yl)-N-[1-(trifluoromethyl)cyclopropyl]benzenesulfonamide], the IC50 (Hepatitis C virus, 72 h) is reported as under 0.5 µM.
Work on `CC(C)(C)NS(=O)(=O)c1ccc(-c2c(C#N)c3cc(C4CC4)cnc3n2C2CCC2)nc1` [Cpd 126, N-tert-butyl-6-(3-cyano-1-cyclobutyl-5-cyclopropyl-1H-pyrrolo[2,3-b]pyridin-2-yl)pyridine-3-sulfonamide] yielded an IC50 (Hepatitis C virus, 72 h) of under 0.5 µM.
`N#Cc1c(-c2ccc(S(=O)(=O)NC(CF)CF)cn2)n(C2CCC2)c2ncc(C3CC3)cc12` [Cpd 131, 6-(3-cyano-1-cyclobutyl-5-cyclopropyl-1H-pyrrolo[2,3-b]pyridin-2-yl)-N-(1,3-difluoropropan-2-yl)pyridine-3-sulfonamide] was tested, and the IC50 (Hepatitis C virus, 72 h) was under 0.5 µM.
Work on `CC(C)NS(=O)(=O)c1ccc(-c2c(C#N)c3cc(C4CC4)cnc3n2C2CCC2)cn1` [Cpd 135, 5-(3-cyano-1-cyclobutyl-5-cyclopropyl-1H-pyrrolo[2,3-b]pyridin-2-yl)-N-(propan-2-yl)pyridine-2-sulfonamide] yielded an IC50 (Hepatitis C virus, 72 h) of under 0.5 µM.
With `Cc1ccc2c(C#N)c(-c3ccc(S(=O)(=O)NC(C)(C)C(F)(F)F)cc3)n(C3CCC3)c2n1` [Cpd 139, 4-(3-cyano-1-cyclobutyl-6-methyl-1H-pyrrolo[2,3-b]pyridin-2-yl)-N-(1,1,1-trifluoro-2-methylpropan-2-yl)benzenesulfonamide] the IC50 (Hepatitis C virus, 72 h) was 0.5 to 2 µM.
`C[C@H](NS(=O)(=O)c1ccc(-c2c(C#N)c3ccc(C4CC4)nc3n2C2CCC2)cc1)C(F)(F)F` [Cpd 149, 4-(3-cyano-1-cyclobutyl-6-cyclopropyl-1H-pyrrolo[2,3-b]pyridin-2-yl)-N-[(2S)-1,1,1-trifluoropropan-2-yl]benzenesulfonamide] showed an IC50 (Hepatitis C virus, 72 h) of under 0.5 µM.
`C[C@@H](NS(=O)(=O)c1ccc(-c2c(C#N)c3ccc(C4CC4)nc3n2C2CCC2)cc1)C(F)(F)F` [Cpd 150, 4-(3-cyano-1-cyclobutyl-6-cyclopropyl-1H-pyrrolo[2,3-b]pyridin-2-yl)-N-[(2R)-1,1,1-trifluoropropan-2-yl]benzenesulfonamide] was tested, and the IC50 (Hepatitis C virus, 72 h) was under 0.5 µM.
Work on `C[C@H](NS(=O)(=O)c1cnc(-c2c(C#N)c3ccc(C4CC4)nc3n2C2CCC2)nc1)C(F)(F)F` [Cpd 153, 2-(3-cyano-1-cyclobutyl-6-cyclopropyl-1H-pyrrolo[2,3-b]pyridin-2-yl)-N-[(2S)-1,1,1-trifluoropropan-2-yl]pyrimidine-5-sulfonamide] yielded an IC50 (Hepatitis C virus, 72 h) of under 0.5 µM.
In the case of `CCc1cnc2c(c1)c(C#N)c(-c1ccc(S(=O)(=O)N[C@@H](C)C(F)(F)F)cn1)n2C1CCC1` [Cpd 157, 6-(3-cyano-1-cyclobutyl-5-ethyl-1H-pyrrolo[2,3-b]pyridin-2-yl)-N-[(2S)-1,1,1-trifluoropropan-2-yl]pyridine-3-sulfonamide], the IC50 (Hepatitis C virus, 72 h) is reported as under 0.5 µM.
In the case of `CCc1cnc2c(c1)c(C#N)c(-c1ccc(S(=O)(=O)N[C@H](C)C(F)(F)F)cn1)n2C1CCC1` [Cpd 158, 6-(3-cyano-1-cyclobutyl-5-ethyl-1H-pyrrolo[2,3-b]pyridin-2-yl)-N-[(2R)-1,1,1-trifluoropropan-2-yl]pyridine-3-sulfonamide], the IC50 (Hepatitis C virus, 72 h) is reported as under 0.5 µM.
For `CCc1cnc2c(c1)c(C#N)c(-c1ncc(S(=O)(=O)N[C@@H](C)C(F)(F)F)cn1)n2C1CCC1` [Cpd 159, 2-(3-cyano-1-cyclobutyl-5-ethyl-1H-pyrrolo[2,3-b]pyridin-2-yl)-N-[(2S)-1,1,1-trifluoropropan-2-yl]pyrimidine-5-sulfonamide], the IC50 (Hepatitis C virus, 72 h) was under 0.5 µM.
Molecule `CCc1cnc2c(c1)c(C#N)c(-c1ncc(S(=O)(=O)N[C@H](C)C(F)(F)F)cn1)n2C1CCC1` [Cpd 160, 2-(3-cyano-1-cyclobutyl-5-ethyl-1H-pyrrolo[2,3-b]pyridin-2-yl)-N-[(2R)-1,1,1-trifluoropropan-2-yl]pyrimidine-5-sulfonamide] has an IC50 (Hepatitis C virus, 72 h) of under 0.5 µM.
With `CCc1cnc2c(c1)c(C#N)c(-c1ccc(S(=O)(=O)NC(C)(C)C)cn1)n2C1CCC1` [Cpd 186, N-tert-butyl-6-(3-cyano-1-cyclobutyl-5-ethyl-1H-pyrrolo[2,3-b]pyridin-2-yl)pyridine-3-sulfonamide] the IC50 (Hepatitis C virus, 72 h) was under 0.5 µM.
`CCc1cnc2c(c1)c(C#N)c(-c1ccc(S(=O)(=O)NC3(C)CC3)cn1)n2C1CCC1` [Cpd 188, 6-(3-cyano-1-cyclobutyl-5-ethyl-1H-pyrrolo[2,3-b]pyridin-2-yl)-N-(1-methylcyclopropyl)pyridine-3-sulfonamide] gave an IC50 (Hepatitis C virus, 72 h) of under 0.5 µM.
In the case of `CCc1cnc2c(c1)c(C#N)c(-c1ncc(S(=O)(=O)NC3(C)CC3)cn1)n2C1CCC1` [Cpd 189, 2-(3-cyano-1-cyclobutyl-5-ethyl-1H-pyrrolo[2,3-b]pyridin-2-yl)-N-(1-methylcyclopropyl)pyrimidine-5-sulfonamide], the IC50 (Hepatitis C virus, 72 h) is reported as under 0.5 µM.
Molecule `CCc1cnc2c(c1)c(C#N)c(-c1ncc(S(=O)(=O)NC(CF)CF)cn1)n2C1CCC1` [Cpd 192, 2-(3-cyano-1-cyclobutyl-5-ethyl-1H-pyrrolo[2,3-b]pyridin-2-yl)-N-(1,3-difluoropropan-2-yl)pyrimidine-5-sulfonamide] has an IC50 (Hepatitis C virus, 72 h) of under 0.5 µM.
Work on `CCc1cnc2c(c1)c(C#N)c(-c1ccc(S(=O)(=O)NC3CC3)cn1)n2C1CCC1` [Cpd 193, 6-(3-cyano-1-cyclobutyl-5-ethyl-1H-pyrrolo[2,3-b]pyridin-2-yl)-N-cyclopropylpyridine-3-sulfonamide] yielded an IC50 (Hepatitis C virus, 72 h) of under 0.5 µM.
